Patent publication US6346535B1, “Fungicidal mixtures” (American Cyanamid Company, priority 1999, dated 2002)

What was measured:
Format in all cases: in vivo
[1] = test system: Blumeria graminis on wheat; experiment: Greenhouse trial, 4 day curative, Blumeria graminis on wheat; conditions: compound alone
Experimental: The trials are carried out under greenhouse (Examples 1 to 18) or field conditions (Example 19) in residual or curative applications. The fungicides are applied in single treatments, or in a combination comprising a benzophenone of formula I and a compound selected from (A) through (E) as defined above. The compounds are applied in form of an aqueous spray mix obtained from a concentrated formulation or the technical material. […] Seed is planted in 6 cm diameter plastic pots and maintained in the greenhouse. […] When the primary leaf is fully expanded (in the case of cereals) or several leaves are present (in the case of dicots), formulated test compounds are sprayed with a three nozzle overhead fungicide sprayer to near run-off. Alternatively, a single nozzle overhead track sprayer is used for application of the compounds to cereals at a rate of 200 liters/ha (l/ha). Plants are then allowed to air-dry. […] Inoculation precedes treatment in the case of curative evaluations and follows treatment in case of residual evaluations. For inoculation of powdery mildew disease, plants are set up on greenhouse benches with bottom watering mats and inoculated by dusting them with conidia from infected plants. Between inoculation and treatment for curative evaluations and between treatment and inoculation for residual evaluations, plants are maintained in the greenhouse with bottom watering. For inoculation of non-powdery mildew diseases, an aqueous spore suspension of the pathogen is applied to the plant and the plants are kept 1-2 days in a moist infection chamber before being returned to the greenhouse where they are maintained by bottom watering. […] Disease on the foliage as percent leaf area with disease symptoms/signs is evaluated about 7 days after inoculation. In the case of wheat, the tips and bases of the leaves are excluded from the evaluation. [formula] […] Compounds are dissolved in acetone prior to addition of the water; the Tween 20 can be added through either the acetone or the water. Dilutions are made using the solvent/surfactant system. Formulated compounds are prepared using deionized water. Assessments of the diseases took place at the indicated day after the application of the compounds. Per cent infected leaf area infected was evaluated. […] Synergy of a fungicide mixture was determined by comparing the actual (observed) fungicidal activity of the mixture to the expected fungicidal activity of the mixture as calculated using the COLBY formula given hereinabove.

[2] = test system: Uncinula necator on vines; experiment: Greenhouse trial, 1 day residual, Uncinula necator on vines; conditions: Table XVIII, compound alone
Experimental: (§1) The trials are carried out under greenhouse (Examples 1 to 18) or field conditions (Example 19) in residual or curative applications. The fungicides are applied in single treatments, or in a combination comprising a benzophenone of formula I and a compound selected from (A) through (E) as defined above. The compounds are applied in form of an aqueous spray mix obtained from a concentrated formulation or the technical material.
(§2) 1. Seed is planted in 6 cm diameter plastic pots and maintained in the greenhouse.
(§3) 2. When the primary leaf is fully expanded (in the case of cereals) or several leaves are present (in the case of dicots), formulated test compounds are sprayed with a three nozzle overhead fungicide sprayer to near run-off. Alternatively, a single nozzle overhead track sprayer is used for application of the compounds to cereals at a rate of 200 liters/ha (l/ha). Plants are then allowed to air-dry.
(§4) 3. Inoculation precedes treatment in the case of curative evaluations and follows treatment in case of residual evaluations. For inoculation of powdery mildew disease, plants are set up on greenhouse benches with bottom watering mats and inoculated by dusting them with conidia from infected plants. Between inoculation and treatment for curative evaluations and between treatment and inoculation for residual evaluations, plants are maintained in the greenhouse with bottom watering. For inoculation of non-powdery mildew diseases, an aqueous spore suspension of the pathogen is applied to the plant and the plants are kept 1-2 days in a moist infection chamber before being returned to the greenhouse where they are maintained by bottom watering.
(§5) 4. Disease on the foliage as percent leaf area with disease symptoms/signs is evaluated about 7 days after inoculation. In the case of wheat, the tips and bases of the leaves are excluded from the evaluation. [formula]
(§6) 1. Technical compounds are formulated in a solvent/surfactant system consisting of 5% acetone and 0.05% Tween 20 in deionized water. Compounds are dissolved in acetone prior to addition of the water; the Tween 20 can be added through either the acetone or the water. Dilutions are made using the solvent/surfactant system. Formulated compounds are prepared using deionized water.
(§7) Assessments of the diseases took place at the indicated day after the application of the compounds. Per cent infected leaf area infected was evaluated. The efficacy of the compounds/compounds mixtures to control the diseases was calculated by using the formula given above under item 4: […]
(§8) Synergy of a fungicide mixture was determined by comparing the actual (observed) fungicidal activity of the mixture to the expected fungicidal activity of the mixture as calculated using the COLBY formula given hereinabove.
Fungicidal Efficacy of the Mixture of BP-4+AP-4 (1 Day Residual) Against Uncinula necator on Vines
The tank mixes were obtained from technical material of BP-4 and AP-4. The active ingredients, the type of formulations, the observed and expected efficacies with different rates are given in Table XVIII: […]

[3] = test system: Blumeria graminis f. sp. tritici on wheat; experiment: Greenhouse trial, 2 day curative, Blumeria graminis f. sp. tritici on wheat; conditions: Table XVII, compound alone
Experimental: as §1, §2, §3, §4, §5, §6, §7, §8
Fungicidal Efficacy of the Mixture of Different Benzophenones+Metconazole (2 Day Curative) Against Blumeria graminis f. sp. tritici on Wheat
The tank mixes were obtained from technical material of the benzophenones BP-2 and BP-4 and metconazole.

[4] = test system: Blumeria graminis on wheat; experiment: Greenhouse trial, 3 day protective, Blumeria graminis on wheat; conditions: compound alone
Source text: (§9) The fungicides are applied in single treatments, or in a combination comprising a benzophenone of formula I and a compound selected from (A) through (E) as defined above. The compounds are applied in form of an aqueous spray mix obtained from a concentrated formulation or the technical material.
as §2, §3, §4, §5, §6, §7, §8
Fungicidal Efficacy of the Mixture of BP-5+Triforine (3 Day Protective) Against Blumeria graminis on Wheat
Fungicidal Efficacy of the Mixture of BP-1+Triadimefon (3 Day Protective) Against Blumeria graminis on Wheat

[5] = test system: Erysiphe cichoracearum on cucumbers; experiment: Greenhouse trial, 4 day residual, Erysiphe cichoracearum on cucumbers
Source text: as §9, §2, §3, §4, §5, §6, §7, §8

[6] = test system: Puccinia recondita on wheat; experiment: Greenhouse trial, 4 day residual, Puccinia recondita on wheat
Source text: as §9, §2, §3, §4, §5, §6, §7, §8
Fungicidal Efficacy of the Mixture of BP-4+Other Fungicides (4 Day Residual) Against Puccinia recondita on Wheat
Fungicidal Efficacy of the Mixture of BP-4+Myclobutanil (4 Day Residual) Against Puccinia recondita on Wheat

[7] = test system: Pyrenophora teres on barley; experiment: Greenhouse trial, 4 day residual, Pyrenophora teres on barley; conditions: Table XVI (Example 16), 4 day residual
Source text: as §9, §2, §3, §4, §5, §6, §7, §8
Fungicidal Efficacy of the Mixture of BP-4+Other Fungicides (4 Day Residual) Against Pyrenophora teres on Barley

[8] = test system: Leptosphaeria nodorum on wheat; experiment: Greenhouse trial, 4 day residual, Leptosphaeria nodorum on wheat; conditions: Table VIII, compound alone
Source text: as §9, §2, §3, §4, §5, §6, §7, §8
Fungicidal Efficacy of the Mixture of BP-4+Other Fungicides (4 Day Residual) Against Leptosphaeria nodorum on Wheat

[9] = Table XIV (Example 14), 4 day residual, dose rate 10 ppm
[10] = Table XV (Example 15), 4 day residual, dose rate 50 ppm

Compound: Fc1cccc(Cl)c1-c1c(Cl)nc2ncnn2c1NC1CC1 [AP-1, 5-chloro-6-(2-chloro-6-fluorophenyl)-7-(cyclopropylamino)-[1,2,4]triazolo[1,5-a]pyrimidine]
- Observed Efficacy ([1]; Table I, dose rate 25 ppm): 0%
- Observed Efficacy ([1]; Table I, dose rate 125 ppm): 0%

Compound: CC1CCN(c2c(-c3c(F)cccc3Cl)c(Cl)nc3ncnn23)CC1 [AP-2, 5-chloro-6-(2-chloro-6-fluorophenyl)-7-(4-methylpiperid-1-yl)-[1,2,4]triazolo[1,5-a]pyrimidine]
- Observed Efficacy ([1]; Table II, dose rate 25 ppm): 0%
- Observed Efficacy ([1]; Table II, dose rate 125 ppm): 8%

Compound: CC(Nc1c(-c2c(F)cc(F)cc2F)c(Cl)nc2ncnn12)C(F)(F)F (stereo not drawn) [AP-4, 5-chloro-6-(2,4,6-trifluorophenyl)-7-[2-(1,1,1-trifluoro)propylamino]-[1,2,4]triazolo[1,5-a]pyrimidine]
- Observed Efficacy ([2]; dose rate 0.03 ppm): 13%
- Observed Efficacy ([2]; dose rate 0.06 ppm): 7%
- Observed Efficacy ([2]; dose rate 0.12 ppm): 32%
- Observed Efficacy ([2]; dose rate 0.25 ppm): 50%
- Observed Efficacy ([2]; dose rate 0.5 ppm): 76%
- Observed Efficacy ([2]; dose rate 1 ppm): 76%

Compound: COc1cc(C)c(C(=O)c2c(Cl)cccc2Cl)c(OCc2ccccc2F)c1OC [BP-2, 2,6-dichloro-4′,5′-dimethoxy-6′-(2-fluorobenzyloxy)-2′-methylbenzophenone]
- Observed Efficacy ([3]; dose rate 0.67 ppm): 4%
- Observed Efficacy ([3]; dose rate 2 ppm): 13%
- Observed Efficacy ([3]; dose rate 6 ppm): 18%
- Observed Efficacy ([3]; dose rate 18 ppm): 25%
- Observed Efficacy ([3]; dose rate 54 ppm): 67%

Compound: COc1cc(C)c(C(=O)c2c(Cl)cccc2Cl)c(OC)c1OC [BP-5, 2,6-dichloro-2′-methyl-4′,5′,6′-trimethoxybenzophenone]
- Observed Efficacy ([4]; Table IV, dose rate 5 ppm): 12%
- Observed Efficacy ([4]; Table IV, dose rate 25 ppm): 31%

Compound: CC(C)(C)C(=O)C(Oc1ccc(Cl)cc1)n1cncn1 (stereo not drawn) [triadimefon]
- Observed Efficacy ([1]; Table III, dose rate 25 ppm): 12%
- Observed Efficacy ([1]; Table III, dose rate 125 ppm): 30%
- Observed Efficacy ([4]; Table V, dose rate 25 ppm): 24%
- pest or weed control at 0.4 ppm ([5]; Golovinomyces cichoracearum, 96 h, Table XIV (Example 14), 4 day residual, dose rate 0.4 ppm, read-out: Observed Efficacy): 0%
- pest or weed control at 2 ppm ([5]; Golovinomyces cichoracearum, 96 h, Table XIV (Example 14), 4 day residual, dose rate 2 ppm, read-out: Observed Efficacy): 6%
- pest or weed control at 10 ppm ([5]; Golovinomyces cichoracearum, 96 h, Table XIV (Example 14), 4 day residual, dose rate 10 ppm, read-out: Observed Efficacy): 23%
- pest or weed control at 50 ppm ([5]; Golovinomyces cichoracearum, 96 h, Table XIV (Example 14), 4 day residual, dose rate 50 ppm, read-out: Observed Efficacy): 47%

Compound: Dinocap
- Observed Efficacy [5, 9]: 0
- Observed Efficacy [6, 10]: 54
- Observed Efficacy ([7]; dose rate 50 ppm): 22

Compound: Flusilazole [listing 1 of 2 here]
- Observed Efficacy ([5]; Table XIV (Example 14), 4 day residual, dose rate 50 ppm): 38
- Observed Efficacy [6, 10]: 100
- Observed Efficacy ([7]; dose rate 50 ppm): 48

Compound: Flusilazole [listing 2 of 2 here]
- Observed Efficacy ([5]; Table XIV (Example 14), 4 day residual, dose rate 0.4 ppm): 0
- Observed Efficacy ([5]; Table XIV (Example 14), 4 day residual, dose rate 2 ppm): 0
- Observed Efficacy [5, 9]: 19
- Observed Efficacy ([6]; Table XV (Example 15), 4 day residual, dose rate 0.4 ppm): 5
- Observed Efficacy ([6]; Table XV (Example 15), 4 day residual, dose rate 2 ppm): 28
- Observed Efficacy ([7]; dose rate 2 ppm): 8
- Observed Efficacy ([7]; dose rate 10 ppm): 26

Compound: triforine
- Observed Efficacy ([4]; Table IV, dose rate 125 ppm): 12%
- Observed Efficacy ([5]; Table VI, compound alone, dose rate 4 ppm): 1%
- Observed Efficacy ([5]; Table VI, compound alone, dose rate 16 ppm): 44%
- Observed Efficacy ([5]; Table VI, compound alone, dose rate 64 ppm): 79%
- Observed Efficacy ([5]; Table VI, compound alone, dose rate 256 ppm): 96%
- Observed Efficacy ([6]; Table VII, compound alone, dose rate 4 ppm): 0%
- Observed Efficacy ([6]; Table VII, compound alone, dose rate 16 ppm): 7%
- Observed Efficacy ([6]; Table VII, compound alone, dose rate 64 ppm): 90%
- Observed Efficacy ([6]; Table VII, compound alone, dose rate 256 ppm): 100%
- Observed Efficacy ([8]; dose rate 1 ppm): 0%
- Observed Efficacy ([8]; dose rate 4 ppm): 4%
- Observed Efficacy ([8]; dose rate 16 ppm): 31%
- Observed Efficacy ([8]; dose rate 64 ppm): 51%
- Observed Efficacy ([8]; dose rate 256 ppm): 85%
